# Results published in US20050124557A1, “Use of benzothiazepines having activity as inhibitors of ileal bile acid transport for reducing cholesterololemia” (priority 2002, published 2005).
# Where a name gives a salt, the structure may show the parent alone.
# Tests used:
# [1] = system: LDL receptor/ApoE deficient mice; assay: Combination study (experiment II): plasma lipids/lipoproteins after Compound (I), atorvastatin calcium salt or both; assay type: in vivo; settings: for HDL, % Change compared to control group / LDL, % Change compared to control group / LP-remnants, % Change compared to control group: FPLC
# Protocol: (§1) Compound (I) was dissolved in polyethanylglycol (PEG):ethanol:solutol:Water (4:1:0.5:8.5) vehicle and administered by gavage once a day in the afternoon.
# (§2) Altogether 54 female LDL receptor/ApoE deficient mice were used (5 to 6 weeks old weighing 25 to 30 g at the start of the study; obtained from B&M/AS, Denmark). They were kept under standardized conditions with free access to water and chow. The light-cycle hours were between 6:00 a.m. and 6:00 p.m. In experiment I, the dose response study, the mice were treated with Compound (I) by gavage once a day in the afternoon the first three days and in the morning the last day. The control group on regular R^3-chow received the vehicle by gavage. […] The control group received R^3 chow and vehicle.
# (§3) Mice were starved 3 hours before they were scarified at 10 a.m. Animals were anaesthetized with isofluran, bled by cardiac puncture, and thereafter killed by cervical dislocation. Blood was collected into EDTA containing tubes, plasma was separated by centrifugation and stored at −70° C.
# (§4) Cholesterol in plasma and in FPLC on line measurement was performed with a commercial cholesterol kit from Roche Diagnostics, GmbH, Germany, Cholesterol, CHOD-PAP 1489437.
# (§5) Triglycerides in plasma was measured by using a commercial reagent kit, from Roche Diagnostics, GmbH, Germany, Triglycerides/GB, 450032.
# (§6) The cholesterol distribution profiles were measured by using a size exclusion high performance liquid chromatography system, SMART, with column Superose 6 PC 3.2/30, (Amersham Pharmacia Biotec, Uppsala, Sweden). The chromatographic system was linked to an air segmented continuous flow system for online post-derivatization analysis of total cholesterol by using enzymatic colorimetric reagents. The SMART-system was connected to a sample injector, (Gina 50, Gynkotek HPLC, Germering, GmbH). Elution buffer consisted of 0.01M Tris, 0.03 M NaCl, pH 7.40, flow rate […]. The on line flow system was equipped with a peristaltic pump, flow rate 0.7 ml/min, and an incubation coil for 8 minutes at 37° C. The absorbance was measured at […] with a UV/VIS detector, (Jasco UV-970, Jasco International Co, Ltd, Japan). Data were integrated with a Chromeleon chromatography data system (Gynkotek HPLC, Germering GmbH). The distribution of lipoproteins was continuously measured as total cholesterol by using enzymatic calorimetric reagent, reconstituted in water, double volume compared to manufacturer instructions. The commercial kits were from Roche Diagnostics, GmbH, Germany, Cholesterol, CHOD-PAP 1489437. The separation was performed within 60 minutes on a 10 μl sample. The integrated area of the fractions was expressed in molar concentration. The various peaks in the profiles are designated LP-remnants, LDL, and HDL for simplicity, even though it is clear that the separation is determined primarily by the size of the lipoproteins.
# [2] = system: LDL receptor/ApoE deficient mice; assay: Dose response study (experiment I): plasma lipids/lipoproteins after Compound (I) by gavage; assay type: in vivo; settings: for Chol (plasma total cholesterol), % Change compared to control group / LP-remnants + LDL/HDL, % Change compared to control group / TG (plasma triglycerides), % Change compared to control group / HDL, % Change compared to control group / LDL, % Change compared to control group / LP-remnants, % Change compared to control group: three days, gavage
# Protocol: as §1, §2, §3, §4, §5, §6
# With the aim to determine the effect of the BAT inhibitor, Compound (I), on the level of plasma lipids in LDL receptor/ApoE deficient mice, groups of animals received vehicle or Compound (I) at increasing doses (0.62, 2.5, 10 and 40 μmol/kg/day) for 3.5 days. […] To analyze plasma lipoproteins in detail, plasma lipoprotein patterns were generated after separation of plasma by FPLC.
# [3] = FPLC analysis of plasma, 7 days
# [4] = one week, Compound (I) 10 μmol/kg/day by gavage, atorvastatin calcium salt 0.05% in chow
# [5] = FPLC, dose not stated in the sentence (Table 1: 40 μmol/kg/day)
structure (smiles),measurement,setting,value
"CC(C)c1c(C(=O)Nc2ccccc2)c(-c2ccccc2)c(-c2ccc(F)cc2)n1CC[C@@H](O)C[C@@H](O)CC(=O)O [Atorvastatin calcium salt, reference compound]",reduction of LDL cholesterol,[1]; [3],44%
same,"LP-remnants + LDL/HDL, % Change compared to control group",[1]; [4],2%
same,"HDL, % Change compared to control group",[1]; [4],−22%
same,"LDL, % Change compared to control group",[1]; [4],−43%
same,"LP-remnants, % Change compared to control group",[1]; [4],−2%
"CCCC[C@]1(CC)CS(=O)(=O)c2cc(O[C@@H]3O[C@H](C(=O)O)[C@@H](O)[C@H](O)[C@H]3O)ccc2[C@@H](c2ccccc2)N1 [Compound (I), (3R,5R)-3-butyl-3-ethyl-1,1-dioxido-5-phenyl-2,3,4,5-tetrahydro-1,4-benzothiazepin-8-yl β-D-glucopyranosiduronic acid]",increase in HDL cholesterol,[1]; 7 days,22%
same,effect on the plasma triglyceride level (in words),"[1]; 7 days, Compound (I) 10 μmol/kg/day alone",no effect
same,reduction of total plasma cholesterol,"[1]; 7 days, atorvastatin calcium salt 0.05% in diet (approximately 80-100 mg/kg/day), Compound (I) 10 μmol/kg/day",40%
same,reduction of LDL cholesterol,[1]; [3],30%
same,reduction of LP-remnants cholesterol,[1]; [3],62%
same,"Chol (plasma total cholesterol), % Change compared to control group",[1]; [4],−42%
same,"LP-remnants + LDL/HDL, % Change compared to control group",[1]; [4],−54%
same,"TG (plasma triglycerides), % Change compared to control group",[1]; [4],7%
same,"HDL, % Change compared to control group",[1]; [4],22%
same,"LDL, % Change compared to control group",[1]; [4],−29%
same,"LP-remnants, % Change compared to control group",[1]; [4],−62%
same,"Chol (plasma total cholesterol), % Change compared to control group",[2]; 0.625 μmol/kg/day,−9%
same,"LP-remnants + LDL/HDL, % Change compared to control group",[2]; 0.625 μmol/kg/day,−30%
same,"TG (plasma triglycerides), % Change compared to control group",[2]; 0.625 μmol/kg/day,13%
same,"HDL, % Change compared to control group","[2]; 0.625 μmol/kg/day, FPLC",29%
same,"LDL, % Change compared to control group","[2]; 0.625 μmol/kg/day, FPLC",8%
same,"LP-remnants, % Change compared to control group","[2]; 0.625 μmol/kg/day, FPLC",−27%
same,"Chol (plasma total cholesterol), % Change compared to control group",[2]; 10 μmol/kg/day,−35%
same,"LP-remnants + LDL/HDL, % Change compared to control group",[2]; 10 μmol/kg/day,−55%
same,"TG (plasma triglycerides), % Change compared to control group",[2]; 10 μmol/kg/day,23%
same,"HDL, % Change compared to control group","[2]; 10 μmol/kg/day, FPLC",36%
same,"LDL, % Change compared to control group","[2]; 10 μmol/kg/day, FPLC",−20%
same,"LP-remnants, % Change compared to control group","[2]; 10 μmol/kg/day, FPLC",−54%
same,"Chol (plasma total cholesterol), % Change compared to control group",[2]; 40 μmol/kg/day,−40%
same,"LP-remnants + LDL/HDL, % Change compared to control group",[2]; 40 μmol/kg/day,−62%
same,"TG (plasma triglycerides), % Change compared to control group",[2]; 40 μmol/kg/day,8%
same,"HDL, % Change compared to control group","[2]; 40 μmol/kg/day, FPLC",45%
same,"LDL, % Change compared to control group","[2]; 40 μmol/kg/day, FPLC",−23%
same,"LP-remnants, % Change compared to control group","[2]; 40 μmol/kg/day, FPLC",−63%
same,Plasma triglycerides (in words),"[2]; 0.62-40 μmol/kg/day, 3.5 days",not significantly altered
same,HDL cholesterol (in words),[2]; FPLC,no reduction
same,reduction in plasma cholesterol in LDL fraction,[2]; [5],23%
same,reduction in plasma cholesterol in LP-remnants fraction,[2]; [5],63%
same,reduction of total plasma cholesterol,"[2]; highest dose (40 μmol/kg/day), 3.5 days",40%
